One assay concerns the target T1, estrogen receptor alpha (Homo sapiens, UniProt P03372).
T1 construct: endogenous in cells; host or cells: T47D human breast cancer cells (ATCC)
T1 sequence (P03372 1-595): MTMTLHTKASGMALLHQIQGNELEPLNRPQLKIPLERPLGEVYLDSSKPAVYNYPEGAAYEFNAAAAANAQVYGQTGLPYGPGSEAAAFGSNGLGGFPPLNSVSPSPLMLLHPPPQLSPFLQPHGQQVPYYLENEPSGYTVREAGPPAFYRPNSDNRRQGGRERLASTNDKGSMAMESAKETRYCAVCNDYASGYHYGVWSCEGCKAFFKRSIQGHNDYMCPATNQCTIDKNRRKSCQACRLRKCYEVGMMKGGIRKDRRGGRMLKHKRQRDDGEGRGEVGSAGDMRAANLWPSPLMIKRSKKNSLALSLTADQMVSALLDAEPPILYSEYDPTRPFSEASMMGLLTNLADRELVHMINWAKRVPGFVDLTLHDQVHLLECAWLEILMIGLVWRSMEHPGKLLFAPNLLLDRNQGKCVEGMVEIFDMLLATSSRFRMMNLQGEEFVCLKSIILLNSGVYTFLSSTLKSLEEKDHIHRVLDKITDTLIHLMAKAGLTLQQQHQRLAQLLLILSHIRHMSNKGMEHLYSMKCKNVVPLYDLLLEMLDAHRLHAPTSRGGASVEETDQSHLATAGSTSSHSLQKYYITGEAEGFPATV
Put plainly: ERα downregulation assay in T47D breast cancer cells (ERα ELISA). The assay is classed as cell-based. The conditions noted are these: downregulation of ERα relative to fulvestrant (100%), 1E-5 M, 24 hours, negative = upregulation. The text has this:
More specifically, this in vitro bioassay is used to determine the efficacy (fraction of maximal response) of the compound by comparing the data for this compound with those of the reference compound ICI 182,780 (fulvestrant) in the same test (downregulation of fulvestrant is 100% by definition).
A more detailed description of the method used is as follows.
Cell culture. The human epithelial breast cancer cell line T47D (origin: ATCC) was routinely maintained in a 1:1 mixture of Ham's F12 medium and Dulbecco's Modified Eagle Medium (Gibco) enriched with 5% fetal calf serum (Hyclone), 10 mM HEPES pH 7.5 and 100 μg/ml penicillin-streptomycin solution. Cells were grown in 80 cm2 culture flasks (Nunc, Roskilde, Denmark) and kept in an atmosphere of 5% CO2-95% air at 37 degrees Celsius. Cells were subcultured when they reached about 80-90% confluence, resulting in one passage a week. Subculturing includes detaching the cells using Cell Dissociation Buffer [Sigma] and subsequent inoculation at 1:5 or 1:10 in a new Roux flask (175 cc) and\or plating out in Nunclon™ Surface 96 wells microplates. The culture medium needs to be refreshed on day three or four of the incubation, if applicable.
Determination of ERα protein levels: T47D cells in the microplates are incubated with 1E-5 M test compound for 24 hours. The supernatant in all wells is carefully aspirated. Cells are lysed on the microplate and cell lysates are probed for ERα content using an ERα ELISA assay kit (Active Motif).
On the technique in general: In an ELISA, binding on a coated surface is turned into a signal by an enzyme label.

Assay [1] addresses T2, human estrogen receptor α (hERα) (Homo sapiens, UniProt P03372).
T2 sequence (P03372 1-595): T1 sequence (P03372 1-595)
Briefly: antagonistic activity in CHO cells co-transfected with hERα, rat oxytocin promoter and luciferase reporter gene. The assay is classed as cell-based. The conditions noted are these: antagonism of 17β-estradiol-induced transactivation, CHO-hERα-RO-LUC; read-out: ERα pIC50 (converted). The method, then: The antagonistic activity of compounds on the estrogen receptors was determined in an in vitro bioassay with recombinant Chinese Hamster Ovary (CHO) cells stably co-transfected with the human estrogen receptor α (hERα), the rat oxytocin promoter (RO) and the luciferase reporter gene (LUC). […] The antagonistic efficacy, i.e. the amount of maximal inhibition of the 17β-estradiol activated receptor by a compound, is expressed as fraction relative to the maximal inhibition as induced by the standard anti-estrogen ICI 164,384 (efficacy test compound=(maximal inhibition test compound/maximal inhibition ICI 164,384)). A more detailed description of the methodology can be found in De Gooyer et al., Steroids, 68 (2003) 21-30.

The source of these data is patent US9540361B2, “N-substituted azetidine derivatives” (Merck Sharp & Dohme B.V., priority 2010, dated 2017).

Structures can show the parent of a compound that is named as a salt. Marks after values point to notes of the source that are not given here.

Take `CCCN1CC(Oc2ccc(C(=C(CC)c3ccccc3)c3ccc(O)cc3)cc2)C1` (mixture of isomers) [compound 6v, (E/Z)-4-(2-phenyl-1-(4-(1-propylazetidin-3-yloxy)phenyl)but-1-enyl)phenol 2,-2,2-trifluoroacetate]: the “DR (%)” value on estrogen receptor alpha is −5 ^(d) %. The IC50 in assay [1] is 0.501 nM.
As to `CCCN1CC(Oc2ccc(C(=C(Cl)c3ccccc3)c3ccccc3)cc2)C1` (mixture of isomers) [compound 6x, (E/Z)-3-(4-(2-chloro-1,2-diphenylvinyl)phenoxy)-1-propylazetidine 2,2,2-trifluoroacetate], the “DR (%)” value on estrogen receptor alpha stood at 63%. Also, the IC50 in assay [1] was 7.94 nM.
On the same counts, the results for `CCCN1CC(Oc2ccc(C(=O)c3c(-c4cccn4C)noc3-c3ccc(O)cc3)cc2)C1.Cl` [7al, (5-(4-hydroxyphenyl)-3-(1-methyl-1H-pyrrol-2-yl)isoxazol-4-yl)(4-(1-propylazetidin-3-yloxy)phenyl)methanone hydrochloride] are 100% and 7.94 nM.
With `CN1CC(Oc2ccc(-c3c(-c4ccc(O)cc4)sc4cc(O)ccc34)cc2)C1` [compound 6a, 2-(4-hydroxyphenyl)-3-(4-(1-methylazetidin-3-yloxy)phenyl)benzo[b]thiophen-6-ol 2,2,2-trifluoroacetate], the IC50 in assay [1] was 0.794 nM.
For `CCCN1CC(Oc2ccc(Oc3c(-c4ccc(O)cc4)sc4cc(O)ccc34)cc2)C1.O=C(O)C(F)(F)F` [compound 6c, 2-(4-hydroxyphenyl)-3-(4-(1-propylazetidin-3-yloxy)phenoxy)benzo[b]thiophen-6-ol 2,2,2-trifluoroacetate], the “DR (%)” value on estrogen receptor alpha is on record as 7 ^(c) %. For the same compound, the IC50 in assay [1] is 0.251 nM.
`CC(C)N1CC(Oc2ccc(C(=O)c3c(-c4ccc(O)cc4)sc4cc(O)ccc34)cc2)C1` [compound 6e, (6-hydroxy-2-(4-hydroxyphenyl)benzo[b]thiophen-3-yl)(4-(1-isopropylazetidin-3-yloxy)phenyl)methanone hydrochloride]: the IC50 in assay [1] was 1.58 nM.
As for `Oc1ccc(-c2onc(-c3ccccc3Cl)c2-c2ccc(OC3CNC3)cc2)cc1` [compound 6f, 4-(4-(4-(azetidin-3-yloxy)phenyl)-3-(2-chlorophenyl)isoxazol-5-yl)phenol], the IC50 in assay [1] is 15.8 nM.
Turning to `CCCCN1CC(Oc2ccc(-c3c(-c4ccccc4Cl)noc3-c3ccc(O)cc3)cc2)C1` [compound 6h, 4-(4-(4-(1-butylazetidin-3-yloxy)phenyl)-3-(2-chlorophenyl)isoxazol-5-yl)-phenol hydrochloride], the IC50 in assay [1] is 0.631 nM.
In the case of `CCC(C)N1CC(Oc2ccc(-c3c(-c4ccccc4Cl)noc3-c3ccc(O)cc3)cc2)C1` (stereo not shown) [compound 6i, 4-(4-(4-(1-sec-butylazetidin-3-yloxy)phenyl)-3-(2-chlorophenyl)isoxazol-5-yl)-phenol hydrochloride], in assay [1], the IC50 was 1 nM.
As to `CCCN1CC(Oc2ccc(-c3c(-c4ccccc4C)noc3-c3ccc(O)cc3)cc2)C1` [compound 6j, 4-(4-(4-(1-propylazetidin-3-yloxy)phenyl)-3-o-tolylisoxazol-5-yl)phenol 2,2,2-trifluoroacetate], the IC50 in assay [1] is 0.398 nM.
In the case of `CCCN1CC(Oc2ccc(-c3c(-c4ccccc4Cl)noc3-c3ccc(O)cc3C)cc2)C1` [compound 6k, 4-(3-(2-chlorophenyl)-4-(4-(1-propylazetidin-3-yloxy)phenyl)isoxazol-5-yl)-3-methylphenol 2,2,2-trifluoroacetate], the IC50 in assay [1] was 0.501 nM.
With `CCCN1CC(Oc2ccc(-c3c(-c4ccccc4Cl)noc3-c3ccc(O)c(C)c3)cc2)C1` [compound 6l, 4-(3-(2-chlorophenyl)-4-(4-(1-propylazetidin-3-yloxy)phenyl)isoxazol-5-yl)-2-methylphenol 2,2,2-trifluoroacetate], the IC50 in assay [1] was 0.631 nM.
Turning to `CCCN1CC(Oc2ccc(C(=O)c3c(-c4ccc(O)cc4)noc3-c3ccccc3Cl)cc2)C1` [compound 6n, (5-(2-chlorophenyl)-3-(4-hydroxyphenyl)isoxazol-4-yl)(4-(1-propylazetidin-3-yloxy)phenyl)methanone], at estrogen receptor alpha, the “DR (%)” value is 62%. The IC50 in assay [1] was 3.98 nM.
Consider `CCCN1CC(Oc2ccc([C@H]3c4ccc(OC)cc4OC(C)(C)[C@@H]3c3ccccc3)cc2)C1.O=C(O)C(F)(F)F` [compound 6o, 3-(4-((3S,4S)-7-methoxy-2,2-dimethyl-3-phenylchroman-4-yl)phenoxy)-1-propylazetidine 2,2,2-trifluoroacetate], for which, on estrogen receptor alpha, the “DR (%)” value is reported as 75%. For the same compound, the IC50 in assay [1] is 25.1 nM.
With `CCCN1CC(Oc2ccc([C@H]3c4ccc(O)cc4OC(C)(C)[C@@H]3c3ccccc3)cc2)C1.O=C(O)C(F)(F)F` [compound 6p, (3S,4S)-2,2-dimethyl-3-phenyl-4-(4-(1-propylazetidin-3-yloxy)phenyl)chroman-7-ol 2,2,2-trifluoroacetate], the “DR (%)” value on estrogen receptor alpha is recorded as 58%. Moreover, the IC50 in assay [1] was 3.98 nM.
With `CCCN1CC(Oc2ccc(Cc3c(-c4ccccc4)c(=O)oc4cc(O)ccc34)cc2)C1` [compound 6r, 7-hydroxy-3-phenyl-4-(4-(1-propylazetidin-3-yloxy)benzyl)-2H-chromen-2-one 2,2,2-trifluoroacetate], the IC50 in assay [1] was 1.58 nM.
For `CCCN1CC(Oc2ccc([C@H]3C[C@]4(C)[C@@H](O)CC[C@H]4[C@@H]4CCc5cc(O)ccc5C34)cc2)C1` (stereo partly drawn) [compound 6s, (8S,11S,13S,14S,17S)-13-methyl-11-(4-(1-propylazetidin-3-yloxy)phenyl)-7,-8,9,10,11,12,13,14,15,16,17-decahydro-6H-cyclopenta[a]phenanthrene-3,17-diol], in assay [1], the IC50 is 2.51 nM.
Turning to `C[C@]12C[C@H](c3ccc(OC4CN(CC5CC5)C4)cc3)C3c4ccc(O)cc4CC[C@H]3[C@@H]1CC[C@@H]2O` (stereo partly drawn) [compound 6t, (8S,11S,13S,14S,17S)-11-(4-(1-(cyclopropylmethyl)azetidin-3-yloxy)phenyl)-13-methyl-7,8,9,10,11,12,13,14,15,16,17-decahydro-6H-cyclopenta[a]phenanthrene-3,17-diol], in assay [1], the IC50 is 3.16 nM.
Take `CCCN1CC(Oc2ccc(-c3c(-c4c(C)cccc4Cl)noc3-c3ccc(O)cc3)cc2)C1.O=C(O)C(F)(F)F` [compound 7ab, 4-(3-(2-chloro-6-methylphenyl)-4-(4-(1-propylazetidin-3-yloxy)phenyl)isoxazol-5-yl)phenol 2,2,2-trifluoroacetate]: the “DR (%)” value at estrogen receptor alpha is reported as 86%. The IC50 in assay [1] was 0.398 nM.
In the case of `CCCN1CC(Oc2ccc(-c3c(-c4cccc(C)c4C)noc3-c3ccc(O)cc3)cc2)C1.O=C(O)C(F)(F)F` [compound 7ac, 4-(3-(2,3-dimethylphenyl)-4-(4-(1-propylazetidin-3-yloxy)phenyl)isoxazol-5-yl)phenol 2,2,2-trifluoroacetate], at estrogen receptor alpha, the “DR (%)” value is listed as 94%. In addition, the IC50 in assay [1] is 1.58 nM.
Regarding `CCCN1CC(Oc2ccc(-c3c(-c4ccccc4CC)noc3-c3ccc(O)cc3)cc2)C1.O=C(O)C(F)(F)F` [compound 7ad, 4-(3-(2-ethylphenyl)-4-(4-(1-propylazetidin-3-yloxy)phenyl)isoxazol-5-yl)-phenol 2,2,2-trifluoroacetate], at estrogen receptor alpha, the “DR (%)” value was determined as 92%. Further, in assay [1], the IC50 is 1 nM.
